{"source": "patent US9200015B2", "about": "“Inositol hexakisphosphate analogs and uses thereof” (priority 2011, dated 2015)", "key": {"TcdA and TcdB holotoxins [1]": {"tested_on": "TcdA and TcdB holotoxins", "type": "biochemical, Clostridium difficile", "details": "for AC50: read-out: AC50 (concentration that provides half the maximum activity)", "procedure": "(§1) In Vitro Testing of Nitroso-InsP6 Derivatives. In vitro testing and measurement of binding affinities of compounds are performed using toxin cleavage assays, and by radioligand or BIACORE-toxin binding studies, respectively. For medium throughput toxin cleavage assays, autocleavage of 1 μg TcdA and TcdB holotoxins is performed in 25 μL 20 mM Tris-HCI, 150 mM NaCI (pH 7.4) with and without InsP6 for 10-60 min at 37° C. (FIG. 6). Cleavage reactions are then stopped with SDS-PAGE loading buffer and boiling at 96° C. for 5 min. Samples are then run under reducing conditions on 4-20% gradient gels and cleavage products stained with GelcodeBiue™ for 1 hr and cleared in water overnight. AC50 and IC50 concentrations are calculated by measuring the relative absorbance of cleavage fragments relative to intact toxin using a LiCor Odyssey infrared scanner (λ=680 nm). Cleavage is plotted against ligand concentration using four-parameter logistic curve fitting on SigmaPlot 11.0 software. If the toxin cleavage efficiency remains unaltered in purified nitroso-InsP6 fractions, then toxin Rac1 glucosylation and cell rounding assays are initiated to evaluate cytoprotection in cell culture systems. […] Thus, enzymatic digestions of nitroso-InsP6 derivatives are carried out with EC 3.1.3.8 (type 3 phytase); EC 3.1.3.72 (type 5 phytase), and EC 3.1.3.26 (type 4/6 phytase) to test whether the NO-modifications are nonhydrolysable (e.g., FIG. 7)."}, "phytase": {"tested_on": "phytase", "details": "FIG. 7", "procedure": "In Vitro Testing of Nitroso-InsP6 Derivatives. In vitro testing and measurement of binding affinities of compounds are performed using toxin cleavage assays, and by radioligand or BIACORE-toxin binding studies, respectively. For medium throughput toxin cleavage assays, autocleavage of 1 μg TcdA and TcdB holotoxins is performed in 25 μL 20 mM Tris-HCI, 150 mM NaCI (pH 7.4) with and without InsP6 for 10-60 min at 37° C. (FIG. 6). Cleavage reactions are then stopped with SDS-PAGE loading buffer and boiling at 96° C. for 5 min. Samples are then run under reducing conditions on 4-20% gradient gels and cleavage products stained with GelcodeBiue™ for 1 hr and cleared in water overnight. AC50 and IC50 concentrations are calculated by measuring the relative absorbance of cleavage fragments relative to intact toxin using a LiCor Odyssey infrared scanner (λ=680 nm). Cleavage is plotted against ligand concentration using four-parameter logistic curve fitting on SigmaPlot 11.0 software. If the toxin cleavage efficiency remains unaltered in purified nitroso-InsP6 fractions, then toxin Rac1 glucosylation and cell rounding assays are initiated to evaluate cytoprotection in cell culture systems. […]"}, "C. difficile": {"tested_on": "C. difficile", "experiment": "Experimental CDI model, delivery by implanted mini-osmotic pumps", "type": "in vivo, mice", "details": "12.5 mg/kg/day by 7 day mini-osmotic pumps, from 1 day before inoculation with 10^6 bacteria", "source_text": "In this set of experiments, vehicle treatment was associated with 100% mortality, vs. 40% and 10% for InsP6 and nitroso-InsP6 groups, respectively.\nBecause of the current uncertainty of the nitroso-InsP6 chemistry, there may be potential limitations to oral nitroso-InsP6 delivery as this molecule may show poor colonic bioavailability due to degradation and absorption in the small intestine."}, "Caco-2 colonocytes": {"tested_on": "Caco-2 colonocytes", "experiment": "Inhibition of toxin-induced cytotoxicity in Caco-2 colonocytes", "type": "cell-based", "details": "Homo sapiens, FIG. 3A right"}, "[2]": {"tested_on": "C. difficile (strain VPI 10463)", "experiment": "Murine CDI model, InsP6 given intragastrically", "type": "in vivo, C57BL/6 mice", "details": "for Protection of mice from CDI (survival): oral/intragastric 0.25 and 2.5 mg/kg/day, 10^6 C. difficile, survival at day 6", "procedure": "FIGS. 3A-3D show therapeutic allostery and examples of the assays to test designed compounds. […] (FIGS. 3C-3D) Kaplan-Meier survival plots of infected mice. C57BL/6 mice were inoculated with 10^6 C. difficile.\nOptimization of Phytase-Resistant InsP6 Analogues for CDI Therapy. Aspects of the present invention provide compositions and methods of neutralizing C. difficile exotoxins in the extracellular gut environment. […] C57BL/6 mice were administered antibiotics and then orally inoculated with 10^4-to-10^6 C. difficile (strain VPI 10463). Disease outcome measures included evidence of inflammation and fluid secretion in the caecum and colon of severely afflicted animals, and of characteristic pseudomembraneous histopathologic lesions in the colonic mucosa. […] The highest bacterial dose (10^6 CFU) was used to test for InsP6 efficacy given intra-gastrically (0.25-to-2.5 mg/kg/day; range is within the recommended oral daily dose for humans (1,020 mg/day))."}, "TcdA and TcdB holotoxins [3]": {"molecular_target": "TcdA and TcdB holotoxins (Clostridioides difficile, UniProt P18177)", "sequence (P18177 2-2366 limits assumed)": "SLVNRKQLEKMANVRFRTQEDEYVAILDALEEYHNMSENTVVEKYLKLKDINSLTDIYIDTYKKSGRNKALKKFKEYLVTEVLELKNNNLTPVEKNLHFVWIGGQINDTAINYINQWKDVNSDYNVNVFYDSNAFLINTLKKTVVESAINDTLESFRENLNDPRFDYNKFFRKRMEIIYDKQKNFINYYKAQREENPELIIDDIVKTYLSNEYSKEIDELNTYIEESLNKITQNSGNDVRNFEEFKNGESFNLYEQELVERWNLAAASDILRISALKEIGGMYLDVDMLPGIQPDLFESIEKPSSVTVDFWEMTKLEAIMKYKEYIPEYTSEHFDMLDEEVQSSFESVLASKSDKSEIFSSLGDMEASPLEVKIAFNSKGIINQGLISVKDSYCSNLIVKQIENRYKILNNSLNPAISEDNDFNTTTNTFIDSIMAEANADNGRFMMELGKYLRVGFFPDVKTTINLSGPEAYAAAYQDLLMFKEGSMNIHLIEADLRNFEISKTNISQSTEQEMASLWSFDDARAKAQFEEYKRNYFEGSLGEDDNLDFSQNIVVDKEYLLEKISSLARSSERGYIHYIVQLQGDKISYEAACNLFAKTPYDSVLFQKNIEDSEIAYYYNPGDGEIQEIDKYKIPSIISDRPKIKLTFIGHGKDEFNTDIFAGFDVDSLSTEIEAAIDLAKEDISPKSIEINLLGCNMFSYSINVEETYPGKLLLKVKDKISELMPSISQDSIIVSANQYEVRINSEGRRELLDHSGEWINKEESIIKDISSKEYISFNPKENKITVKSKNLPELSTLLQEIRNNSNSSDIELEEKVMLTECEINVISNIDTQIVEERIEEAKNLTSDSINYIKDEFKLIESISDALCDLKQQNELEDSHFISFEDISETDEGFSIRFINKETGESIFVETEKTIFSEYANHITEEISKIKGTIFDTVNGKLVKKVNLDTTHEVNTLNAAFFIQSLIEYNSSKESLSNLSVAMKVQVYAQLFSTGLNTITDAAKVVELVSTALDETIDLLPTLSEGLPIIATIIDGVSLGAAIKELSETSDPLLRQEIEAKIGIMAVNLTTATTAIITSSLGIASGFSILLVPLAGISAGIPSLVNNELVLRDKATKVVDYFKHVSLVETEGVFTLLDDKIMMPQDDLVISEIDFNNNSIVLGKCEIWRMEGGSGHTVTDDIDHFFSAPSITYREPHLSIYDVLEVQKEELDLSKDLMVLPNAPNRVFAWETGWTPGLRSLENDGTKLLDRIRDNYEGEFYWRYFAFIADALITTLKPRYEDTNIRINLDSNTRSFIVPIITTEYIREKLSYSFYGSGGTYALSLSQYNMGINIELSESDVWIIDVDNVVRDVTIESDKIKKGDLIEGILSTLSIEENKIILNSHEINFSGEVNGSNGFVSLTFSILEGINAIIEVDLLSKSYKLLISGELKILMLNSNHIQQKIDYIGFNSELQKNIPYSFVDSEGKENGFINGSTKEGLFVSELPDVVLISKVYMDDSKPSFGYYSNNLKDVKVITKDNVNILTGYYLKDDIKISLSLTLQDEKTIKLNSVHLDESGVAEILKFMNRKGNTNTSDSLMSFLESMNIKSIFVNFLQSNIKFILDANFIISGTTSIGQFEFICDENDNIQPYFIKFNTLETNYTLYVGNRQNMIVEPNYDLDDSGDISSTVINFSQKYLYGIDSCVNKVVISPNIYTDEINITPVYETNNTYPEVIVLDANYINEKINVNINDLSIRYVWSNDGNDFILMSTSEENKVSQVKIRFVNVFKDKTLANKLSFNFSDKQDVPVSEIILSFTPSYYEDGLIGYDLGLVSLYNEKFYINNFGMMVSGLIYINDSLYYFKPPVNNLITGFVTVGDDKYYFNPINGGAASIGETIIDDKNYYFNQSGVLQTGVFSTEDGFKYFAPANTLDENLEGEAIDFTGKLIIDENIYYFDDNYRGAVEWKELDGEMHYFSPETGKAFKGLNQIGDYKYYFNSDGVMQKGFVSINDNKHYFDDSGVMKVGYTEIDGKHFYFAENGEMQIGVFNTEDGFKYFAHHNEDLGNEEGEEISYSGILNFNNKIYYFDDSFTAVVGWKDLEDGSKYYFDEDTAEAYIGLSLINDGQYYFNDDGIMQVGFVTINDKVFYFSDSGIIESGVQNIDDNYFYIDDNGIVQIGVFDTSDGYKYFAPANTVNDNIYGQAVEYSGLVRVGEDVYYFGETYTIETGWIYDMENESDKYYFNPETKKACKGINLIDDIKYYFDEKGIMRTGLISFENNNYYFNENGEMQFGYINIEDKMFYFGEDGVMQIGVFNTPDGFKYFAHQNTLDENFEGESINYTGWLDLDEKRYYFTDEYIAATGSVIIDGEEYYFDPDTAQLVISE", "type": "biochemical, Clostridium difficile", "procedure": "as §1"}, "[4]": {"details": "Table 1, representative inositol analogs"}}, "note": "Entries after “also recorded” stand apart in the source; their conditions may differ. Where two headings read alike, the source gives them in different places."}
{"compound": "O=P(O)(O)OC1C(O)C(OP(=O)(O)O)C(OP(=O)(O)O)C(OP(=O)(O)O)C1O", "note": "(stereo not drawn) [Myo-InsP4(2,6), myo-inositol-(1,3,4,5-tetrakisphosphate)]", "values": [{"measurement": "AC50", "setting": "TcdA and TcdB holotoxins [1]; [4]", "result": "> 1000", "unit": "µM"}]}
{"compound": "O=P(O)(O)OC1C(O)C(OP(=O)(O)O)C(OP(=O)(O)O)C(OP(=O)(O)O)C1O", "note": "(stereo not drawn) [Myo-InsP4(4,6), myo-inositol-(1,2,3,5-tetrakisphosphate)]", "values": [{"measurement": "AC50", "setting": "TcdA and TcdB holotoxins [1]; [4]", "result": "> 1000", "unit": "µM"}]}
{"compound": "O=P(O)(O)OC1C(O)C(OP(=O)(O)O)C(OP(=O)(O)O)C(OP(=O)(O)O)C1OP(=O)(O)O", "note": "(stereo not drawn) [Myo-InsP5(1), myo-inositol-(2,3,4,5,6-pentakisphosphate)]", "values": [{"measurement": "AC50", "setting": "TcdA and TcdB holotoxins [1]; [4]", "result": 8.67, "unit": "µM"}]}
{"compound": "O=P(O)(O)OC1C(O)C(OP(=O)(O)O)C(OP(=O)(O)O)C(OP(=O)(O)O)C1OP(=O)(O)O", "note": "(stereo not drawn) [Myo-InsP5(2), myo-inositol-(1,3,4,5,6-pentakisphosphate)]", "values": [{"measurement": "AC50", "setting": "TcdA and TcdB holotoxins [1]; [4]", "result": 10.5, "unit": "µM"}]}
{"compound": "O=P(O)(O)OC1C(O)C(OP(=O)(O)O)C(OP(=O)(O)O)C(OP(=O)(O)O)C1OP(=O)(O)O", "note": "(stereo not drawn) [Myo-InsP5(3), myo-inositol-(1,2,4,5,6-pentakisphosphate)]", "values": [{"measurement": "AC50", "setting": "TcdA and TcdB holotoxins [1]; [4]", "result": 95.6, "unit": "µM"}]}
{"compound": "O=P(O)(O)OC1[C@H](OP(=O)(O)O)[C@H](OP(=O)(O)O)C(O)[C@H](OP(=O)(O)O)[C@H]1OP(=O)(O)O", "note": "(stereo partly drawn) [Myo-InsP5(4), myo-inositol-(1,2,3,5,6-pentakisphosphate)]", "values": [{"measurement": "AC50", "setting": "TcdA and TcdB holotoxins [1]", "result": "> 1000", "unit": "µM"}]}
{"compound": "OP(O)(=S)OC1C(OP(O)(O)=S)C(OP(O)(O)=S)C(OP(O)(O)=S)C(OP(O)(O)=S)C1OP(O)(O)=S", "note": "[Myo-InsP6(S), myo-inositol-(1,2,3,4,5,6-phosphorothioate)]", "values": [{"measurement": "AC50", "setting": "TcdA and TcdB holotoxins [1]; [4]", "result": 1.99, "unit": "µM"}, {"measurement": "Phytase resistance", "setting": "phytase", "result": "increased phytase resistance"}]}
{"compound": "O=P(O)(O)O[C@H]1[C@H](OP(=O)(O)O)[C@@H](OP(=O)(O)O)[C@H](OP(=O)(O)O)[C@@H](OP(=O)(O)O)[C@H]1OP(=O)(O)O", "note": "[Myo-InsP6, myo-inositol-hexakisphosphate]", "values": [{"measurement": "Mortality", "setting": "C. difficile", "result": 40, "unit": "%"}, {"measurement": "IC50", "setting": "Caco-2 colonocytes", "result": 10, "unit": "µM"}, {"measurement": "Statistical significance of the protective effect", "setting": "[2]; 2.5 mg/kg group", "result": "statistically significant"}, {"measurement": "Protection of mice from CDI (survival)", "setting": "[2]", "result": "dose dependently protects mice from CDI; also recorded: dose-dependent protective effects"}, {"measurement": "IC50, C. difficile toxins autocleaved", "setting": "TcdA and TcdB holotoxins [3]; FIGS. 3A-3B", "result": 10, "unit": "µM"}, {"measurement": "AC50, toxin autocleavage", "setting": "TcdA and TcdB holotoxins [3]; TcdB, FIG. 3A left", "result": 10, "unit": "µM"}, {"measurement": "AC50", "setting": "TcdA and TcdB holotoxins [1]", "result": 14.8, "unit": "µM"}]}
{"compound": "O[C@H]1[C@H](O)[C@@H](O)[C@H](O)[C@@H](O)[C@H]1O", "note": "[myo-inositol, (1R,2R,3S,4S,5R,6S)-cyclohexane-1,2,3,4,5,6-hexol]", "values": [{"measurement": "Protection of mice from CDI (survival)", "setting": "[2]", "result": "not evident"}]}
{"compound": "(1/3)-phospho-myo-inositol hexaakisphosphate [Myo-InsP7(1/3)]", "values": [{"measurement": "AC50", "setting": "TcdA and TcdB holotoxins [1]; [4]", "result": 3.04, "unit": "µM"}]}
{"compound": "inositolhexakissulfate [InS6]", "values": [{"measurement": "Toxin cleavage activity (preliminary studies)", "setting": "TcdA and TcdB holotoxins [1]", "result": "active compound"}]}
